The results in this text go back to patent US11155558B2, “Dual mode of action soluble guanylate cyclase activators and phosphodiesterase inhibitors and uses thereof” (TOPADUR PHARMA AG, priority 2017, dated 2021).

The target of data set [1] is recombinant human (rh) PDE5A (Homo sapiens (Human), UniProt O76074). Nature of the data set: Phosphodiesterase-5 activity assay (Example 110), radiometric SPA. The data set is classed as biochemical. On the procedure: The inhibition of recombinant human (rh) PDE5A by test compounds is measured in a radiometric assay based on Scintillation Proximity Assay (SPA) technology. The substrate [3H]cGMP/cGMP is hydrolysed to [3H] 5′ GMP/5′ GMP contingent on the activity of rhPDE5A. The ensuing [3H] 5′ GMP/5′ GMP but not [3H] cGMP/cGMP binds to SPA yttrium silicate beads in the presence of Zn^++ stimulating the scintillant within the bead to emit light that is detected by a ß-counter. The assay is performed in a 96 well format.
The assay is done in 20 mM Tris HCl pH 7.4, 5 mM MgCl2, […] cGMP/[3H] cGMP (about 60000 dpm/well) substrate with rhPDE5A1 (GST tagged, SIGMA E9034) added to an amount not exceeding 20% cGMP hydrolysis within 20 min in Tris 20 mM pH 7.4 supplemented with 0.01% bovine serum albumin (BSA) in the presence of test compounds or vehicle (0.1% DMSO). The final assay volume amounts to 100 μl and the reaction is run for 20 min at 37° C.
The hydrolysis of [3H] cGMP/cGMP by rhPDE5A is terminated by adding SPA beads at 50 µl/well (Perkin Elmer, RPNQ0024), pre-diluted in water as per manufacturer's instructions and supplemented with 3-isobutyl-1-methylxanthine (1 mM). Beads are allowed to sediment for at least 30 min before measurement in a Wallac Microbeta 2 (Perkin Elmer).
In general, test compounds are added at seven different concentrations from […] in log steps. […] Results (IC50) are given as the mean from at least two independent experiments each performed in triplicate.

A short description of data set [2]: Measurements of human plasma protein binding. It counts as in vitro ADME. The settings on record: for recovery: human. On the procedure: An aliquot of 200 μL of human plasma containing test compound was spiked into donor well (red chamber) of the insert. 350 μL of PBS was spiked into receiver well (white chamber) of the insert.
The samples were matrix equilibrated with opposite matrix (25 μL of plasma/buffer sample was matched with 25 μL of blank buffer/plasma). Matrix matched samples were precipitated with 200 μL of acetonitrile containing internal standard. Samples were vortexed at 1000 rpm for 5 min and centrifuged at 4000 rpm for 10 min. Supernatant was separated, diluted 2 fold with water and analysed in LC-MS/MS. TO control samples were processed immediately after the preparation of plasma working stock solutions. These samples serves as a measure for calculating the percentage recovery of test compounds.

Data set [3] has as its target PDE5 enzyme isolated from human platelets (Homo sapiens (Human), UniProt O76074). Nature of the data set: PDE5 assay (Example 109), formation of 5′GMP from cGMP, SPA.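 Further: tritiated 5′GMP counted by scintillation after SPA bead capture, enzyme reaction run 60 min at 22 °C, basal control is the mixture without enzyme.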
Protocol: Evaluation of the effects of compounds of the present invention on the activity of the human phosphodiesterase-5 quantified by measuring the formation of 5′GMP from cGMP using PDE5 enzyme isolated from human platelets.
Thereafter, the reaction is initiated by addition of the enzyme and the mixture is incubated for 60 min at 22° C.
For basal control measurements, the enzyme is omitted from the reaction mixture. Following incubation SPA beads are added. After 20 min at 22° C. under shaking, the amount of [3H]5′GMP is quantified with a scintillation counter (Topcount, Packard).
The standard inhibitory reference compound is dipyridamole, which is tested in each experiment at several concentrations to obtain an inhibition curve from which its IC50 value is calculated.

On to `CCCOc1ccc(S(=O)(=O)N2CCC([C@H](CO[N+](=O)[O-])O[N+](=O)[O-])CC2)cc1-c1nc2c(CCC)cn(CC)c2c(=O)[nH]1` [Compound 1k, (R)-1-(1-((3-(5-ethyl-4-oxo-7-propyl-4,5-dihydro-3H-pyrrolo[3,2-d]pyrimidin-2-yl)-4-propoxyphenyl)sulfonyl)piperidin-4-yl)ethane-1,2-diyl dinitrate], for which the IC50 (in general, the midpoint of a concentration-inhibition curve) in data set [1] is 3.5 nM.
Still for that read-out and setting: the same measure for `CCCOc1ccc(S(=O)(=O)N2CCC([C@@H](CO[N+](=O)[O-])O[N+](=O)[O-])CC2)cc1-c1nc2c(CCC)cn(CC)c2c(=O)[nH]1` [Compound 1l, (S)-1-(1-((3-(5-ethyl-4-oxo-7-propyl-4,5-dihydro-3H-pyrrolo[3,2-d]pyrimidin-2-yl)-4-propoxyphenyl)sulfonyl)piperidin-4-yl)ethane-1,2-diyl dinitrate]: 3.2 nM.
The same measure, in the same setting: the same measure for `CCCOc1ccc(S(=O)(=O)N2C[C@@H](CCO[N+](=O)[O-])N(C)[C@@H](CCO[N+](=O)[O-])C2)cc1-c1nc2c(CCC)cn(CC)c2c(=O)[nH]1` [Compound 1m, ((2S,6R)-4-((3-(5-ethyl-4-oxo-7-propyl-4,5-dihydro-3H-pyrrolo[3,2-d]pyrimidin-2-yl)-4-propoxyphenyl)sulfonyl)-1-methylpiperazine-2,6-diyl)bis(ethane-2,1-diyl) dinitrate]: 8.6 nM.
As to `CCCOc1ccc(S(=O)(=O)N2CCC(CCO[N+](=O)[O-])(CCO[N+](=O)[O-])CC2)cc1-c1nc2c(CCC)cn(CC)c2c(=O)[nH]1` [Compound 1n, (1-((3-(5-ethyl-4-oxo-7-propyl-4,5-dihydro-3H-pyrrolo[3,2-d]pyrimidin-2-yl)-4-propoxyphenyl)sulfonyl)piperidine-4,4-diyl)bis(ethane-2,1-diyl) dinitrate], the concentration for half-maximal inhibition (IC50) in data set [1] is 2.7 nM.
Still for that read-out and setting: the same measure for `CCCOc1ccc(S(=O)(=O)N2C[C@H](CCO[N+](=O)[O-])N(C)[C@@H](CCO[N+](=O)[O-])C2)cc1-c1nc2c(CCC)cn(CC)c2c(=O)[nH]1` [Compound 1o, ((2S,6S)-4-((3-(5-ethyl-4-oxo-7-propyl-4,5-dihydro-3H-pyrrolo[3,2-d]pyrimidin-2-yl)-4-propoxyphenyl)sulfonyl)-1-methylpiperazine-2,6-diyl)bis(ethane-2,1-diyl) dinitrate]: 7.1 nM; for `CCCc1c(/C=N/O)n(C)c2c(=O)[nH]c(-c3cc(S(=O)(=O)N4CCN(CCO[N+](=O)[O-])CC4)ccc3OCC)nc12` [Compound 2g, (E)-2-(4-((4-ethoxy-3-(6-((hydroxyimino)methyl)-5-methyl-4-oxo-7-propyl-4,5-dihydro-3H-pyrrolo[3,2-d]pyrimidin-2-yl)phenyl)sulfonyl)piperazin-1-yl)ethyl nitrate]: 31 nM; for `CCCOc1ccc(S(=O)(=O)N2CCN(CCCO[N+](=O)[O-])CC2)cc1-c1nc2c(CCC)cn(C)c2c(=O)[nH]1` [Compound 3d, 3-(4-((3-(5-methyl-4-oxo-7-propyl-4,5-dihydro-3H-pyrrolo[3,2-d]pyrimidin-2-yl)-4-propoxyphenyl)sulfonyl)piperazin-1-yl)propyl nitrate]: 9 nM.
`CCCOc1ccc(S(=O)(=O)N2CCN(CCO[N+](=O)[O-])CC2)cc1-c1nc2c(CCC)c(/C=N/O)n(C)c2c(=O)[nH]1` [Compound 3e, (E)-2-(4-((3-(6-((hydroxyimino)methyl)-5-methyl-4-oxo-7-propyl-4,5-dihydro-3H-pyrrolo[3,2-d]pyrimidin-2-yl)-4-propoxyphenyl)sulfonyl)piperazin-1-yl)ethyl nitrate]: the half-maximal inhibitory concentration (IC50) in data set [1] is 12 nM.
Still for that read-out and setting: the same measure for `CCCOc1ccc(S(=O)(=O)N2CCN(CCCO[N+](=O)[O-])CC2)cc1-c1nc2c(CCC)c(/C=N/O)n(C)c2c(=O)[nH]1` [Compound 3f, (E)-3-(4-((3-(6-((hydroxyimino)methyl)-5-methyl-4-oxo-7-propyl-4,5-dihydro-3H-pyrrolo[3,2-d]pyrimidin-2-yl)-4-propoxyphenyl)sulfonyl)piperazin-1-yl)propyl nitrate]: 42 nM; for `CCCOc1ccc(S(=O)(=O)N2CCC([C@H](CO[N+](=O)[O-])O[N+](=O)[O-])CC2)cc1-c1nc2c(CCC)cn(C)c2c(=O)[nH]1` [Compound 3g, (R)-1-(1-((3-(5-methyl-4-oxo-7-propyl-4,5-dihydro-3H-pyrrolo[3,2-d]pyrimidin-2-yl)-4-propoxyphenyl)sulfonyl)piperidin-4-yl)ethane-1,2-diyl dinitrate]: 23 nM; for `CCCOc1ccc(S(=O)(=O)N2CCC([C@@H](CO[N+](=O)[O-])O[N+](=O)[O-])CC2)cc1-c1nc2c(CCC)cn(C)c2c(=O)[nH]1` [Compound 3h, (S)-1-(1-((3-(5-methyl-4-oxo-7-propyl-4,5-dihydro-3H-pyrrolo[3,2-d]pyrimidin-2-yl)-4-propoxyphenyl)sulfonyl)piperidin-4-yl)ethane-1,2-diyl dinitrate]: 3.7 nM.
On to `CCCOc1ccc(S(=O)(=O)N2CCC(CO[N+](=O)[O-])(CO[N+](=O)[O-])CC2)cc1-c1nc2c(CCC)cn(C)c2c(=O)[nH]1` [Compound 3i, (1-((3-(5-methyl-4-oxo-7-propyl-4,5-dihydro-3H-pyrrolo[3,2-d]pyrimidin-2-yl)-4-propoxyphenyl)sulfonyl)piperidine-4,4-diyl)bis(methylene) dinitrate], for which, in data set [1], the IC50 stood at 14 nM.
On the same count and under the same terms, next, `CCCOc1ccc(S(=O)(=O)N2CCC(CO[N+](=O)[O-])CC2)cc1-c1nc2c(CCC)cn(C)c2c(=O)[nH]1` [Compound 3k, (1-((3-(5-methyl-4-oxo-7-propyl-4,5-dihydro-3H-pyrrolo[3,2-d]pyrimidin-2-yl)-4-propoxyphenyl)sulfonyl)piperidin-4-yl)methyl nitrate]: 15 nM.
On the same count and under the same terms, the same measure for `CCCOc1ccc(S(=O)(=O)N2CCC([C@@H](O)CO[N+](=O)[O-])CC2)cc1-c1nc2c(CCC)cn(C)c2c(=O)[nH]1` [Compound 3l, (R)-2-hydroxy-2-(1-((3-(5-methyl-4-oxo-7-propyl-4,5-dihydro-3H-pyrrolo[3,2-d]pyrimidin-2-yl)-4-propoxyphenyl)sulfonyl)piperidin-4-yl)ethyl nitrate]: 2 nM; for `CCCOc1ccc(S(=O)(=O)N2CCC([C@H](CO[N+](=O)[O-])O[N+](=O)[O-])CC2)cc1-c1nc2c(CCC)c(/C=N/O)n(C)c2c(=O)[nH]1` [Compound 3o, (R,E)-1-(1-((3-(6-((hydroxyimino)methyl)-5-methyl-4-oxo-7-propyl-4,5-dihydro-3H-pyrrolo[3,2-d]pyrimidin-2-yl)-4-propoxyphenyl)sulfonyl)piperidin-4-yl)ethane-1,2-diyl dinitrate]: 13 nM.
Still for that read-out and setting: next, `CCCOc1ccc(S(=O)(=O)N2CCC([C@@H](CO[N+](=O)[O-])O[N+](=O)[O-])CC2)cc1-c1nc2c(CCC)c(/C=N/O)n(C)c2c(=O)[nH]1` [Compound 3p, (S,E)-1-(1-((3-(6-((hydroxyimino)methyl)-5-methyl-4-oxo-7-propyl-4,5-dihydro-3H-pyrrolo[3,2-d]pyrimidin-2-yl)-4-propoxyphenyl)sulfonyl)piperidin-4-yl)ethane-1,2-diyl dinitrate]: 12 nM.
Take `CCCc1cn(C)c2c(=O)[nH]c(-c3cc(S(=O)(=O)N4CCC(CCO)CC4)ccc3OCC)nc12` [Compound 14, 2-(2-ethoxy-5-((4-(2-hydroxyethyl)piperidin-1-yl)sulfonyl)phenyl)-5-methyl-7-propyl-3,5-dihydro-4H-pyrrolo[3,2-d]pyrimidin-4-one]: in data set [2], the “% Bound in Plasma” value came out at 99.43%; the free fraction (fraction unbound) (as a rule, the share of the substance not bound to proteins or other matrix) was 0.0057; the recovery stood at 98.9%. This compound returned a half-maximal inhibitory concentration (IC50) in data set [3] of 0.3 nM.
Regarding `CCCOc1ccc(S(=O)(=O)N2CCN(CCO)CC2)cc1-c1nc2c(CCC)cn(CC)c2c(=O)[nH]1` [mirodenafil, 5-ethyl-2-(5-((4-(2-hydroxyethyl)piperazin-1-yl)sulfonyl)-2-propoxyphenyl)-7-propyl-3,5-dihydro-4H-pyrrolo[3,2-d]pyrimidin-4-one, reference compound], in data set [2], the “% Bound in Plasma” value is 98.94%, the fraction unbound amounted to 0.0106 and the recovery amounted to 99.2%. In addition, the half-inhibitory concentration (IC50) in data set [3] is 0.34 nM. Also, in data set [3] (percent inhibition of control enzyme activity at 5.0E−09 M, assay of Example 109), the % inhibition (commonly the share of the control response that was lost under treatment) at 5.0E−09 M is recorded as 64.9%.
